Experimental findings from US20230382889A1 (Volastra Therapeutics, Inc., priority 2022, published 2023) are described below.

In the assay the target is hKIF18A (1-374) (Homo sapiens (Human), UniProt Q8NI77). As to the kind of experiment: Inhibition of KIF18A microtubule-dependent ATPase activity (ADP-Glo). Format: biochemical. Particulars: 4 nM hKIF18A (1-374). As for the experimental part: Test compounds were plated in a 3× dilution scheme in a 384-well plate. Assay buffer: 80 mM PIPES (pH 6.9), 1 mM MgCl2, 75 mM KCl, 1 mM EGTA, 1 mM DTT, 0.01% BSA, 0.005% Tween-20, 1 μM Taxol in H2O. […] After incubation at room temperature for 30 min, 2.5 μL of microtubule mix was added [0.2 mg/mL pre-formed microtubules, 2.0 mM ATP in assay buffer], the plate was centrifuged for 30 s and then incubated at 28° C. for 60 min. 5 μL of Promega® ADP-Glo Max R1 was added, the plate was centrifuged for 30 s, and the mixture incubated for 4 h at room temperature. 10 μL of Promega® ADP-Glo Max R2 was added, the plate centrifuged for 30 s, and incubated for 60 min at room temperature. Luminescence was measured with an Envision plate reader, and % Inhibition was calculated for each well as: ([max−min]−[test−min])/[max−min]. IC50 values were calculated from concentration vs. % Inhibition data via a four-parameter variable slope model.
Sequence of hKIF18A (1-374) (Q8NI77 1-374): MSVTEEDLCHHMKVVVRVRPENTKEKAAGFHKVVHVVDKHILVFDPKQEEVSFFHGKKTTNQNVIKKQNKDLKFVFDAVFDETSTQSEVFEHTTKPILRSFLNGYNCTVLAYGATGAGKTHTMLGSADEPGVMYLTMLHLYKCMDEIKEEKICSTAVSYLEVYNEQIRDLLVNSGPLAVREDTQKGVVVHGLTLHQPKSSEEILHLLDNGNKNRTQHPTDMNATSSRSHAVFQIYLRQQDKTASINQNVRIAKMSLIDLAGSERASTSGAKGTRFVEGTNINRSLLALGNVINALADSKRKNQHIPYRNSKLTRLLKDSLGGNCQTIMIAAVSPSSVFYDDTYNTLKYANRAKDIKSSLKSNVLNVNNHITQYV
(In general: ADP-Glo turns the ADP formed in a reaction into a luminescent signal.)
`CCS(=O)(=O)Nc1ccc(-n2cc(-c3cncc(N4CCC(F)(F)CC4)n3)nn2)c(N2CCC3(CC2)CC3)c1` [Compound 137, N-(4-(4-(6-(4,4-difluoropiperidin-1-yl)pyrazin-2-yl)-1H-1,2,3-triazol-1-yl)-3-(6-azaspiro[2.5]octan-6-yl)phenyl)ethanesulfonamide]: 6.3 nM corresponded to half-maximal inhibition (IC50).
Regarding `CS(=O)(=O)Nc1ccc(-n2cc(-c3cccc(C(O)C4CCCC4)n3)nn2)c(N2CCC3(CC2)CC3)c1` (stereo not shown) [Compound 22, N-(4-(4-(6-(cyclopentyl(hydroxy)methyl)pyridin-2-yl)-1H-1,2,3-triazol-1-yl)-3-(6-azaspiro[2.5]octan-6-yl)phenyl)methanesulfonamide], half-maximal inhibition (IC50) was put at 11 nM. This IC50 is about 1.7-fold higher than that of the molecule before.
The same measure for `CS(=O)(=O)Nc1ccc(-n2cc(-c3cncc(N4CCC(F)(F)CC4)n3)nn2)c(N2CCC3(CC2)CC3)c1` [Compound 63, N-(4-(4-(6-(4,4-difluoropiperidin-1-yl)pyrazin-2-yl)-1H-1,2,3-triazol-1-yl)-3-(6-azaspiro[2.5]octan-6-yl)phenyl)methanesulfonamide]: 3.4 nM.
Next, `Cc1cc(-c2cn(-c3ccc(NS(=O)(=O)CCO)cc3N3CCC4(CC3)CC4)nn2)nc(N2C[C@@H](F)[C@H](F)C2)c1` [Compound 115, N-(4-(4-(6-((3R,4R)-3,4-difluoropyrrolidin-1-yl)-4-methylpyridin-2-yl)-1H-1,2,3-triazol-1-yl)-3-(6-azaspiro[2.5]octan-6-yl)phenyl)-2-hydroxyethane-1-sulfonamide]: 44 nM; `CS(=O)(=O)Nc1ccc(-n2cc(-c3cccc(N4CCC(F)(F)CC4)n3)cn2)c(N2CCC3(CC2)CC3)c1` [Compound 17, N-(4-(4-(6-(4,4-difluoropiperidin-1-yl)pyridin-2-yl)-1H-pyrazol-1-yl)-3-(6-azaspiro[2.5]octan-6-yl)phenyl)methanesulfonamide]: 29 nM.
Turning to `CS(=O)(=O)Nc1ccc(-n2cc(-c3cccc(N4CCC(F)(F)CC4)n3)nn2)c(N2CCC(C(F)F)CC2)c1` [Compound 19, N-(3-(4-(difluoromethyl)piperidin-1-yl)-4-(4-(6-(4,4-difluoropiperidin-1-yl)pyridin-2-yl)-1H-1,2,3-triazol-1-yl)phenyl)methanesulfonamide], the concentration for half-maximal inhibition (IC50) (usually the concentration at which inhibition is half-maximal) is 14 nM.
`CC(CO)S(=O)(=O)Nc1ccc(-n2cc(-c3cccc(N4CCC(F)(F)CC4)n3)nn2)c(N2CCC3(CC2)CC3)c1` (stereo not shown) [Compound 85, N-(4-(4-(6-(4,4-difluoropiperidin-1-yl)pyridin-2-yl)-1H-1,2,3-triazol-1-yl)-3-(6-azaspiro[2.5]octan-6-yl)phenyl)-1-hydroxypropane-2-sulfonamide] registered an IC50 of 11 nM. This IC50 and that of the molecule before are within 1.5-fold of each other.
Next, `O=S(=O)(CCO)Nc1ccc(-n2cc(-c3cc(F)cc(N4CCC(F)(F)CC4)n3)nn2)c(N2CCC3(CC2)CC3)c1` [Compound 78, N-(4-(4-(6-(4,4-difluoropiperidin-1-yl)-4-fluoropyridin-2-yl)-1H-1,2,3-triazol-1-yl)-3-(6-azaspiro[2.5]octan-6-yl)phenyl)-2-hydroxyethane-1-sulfonamide]: 17 nM; `CS(=O)(=O)Nc1ccc(-n2cc(-c3cccc(N4CCC(F)(F)CC4)n3)nn2)c(N2CC3CC3C2)c1` (stereo not shown) [Compound 165, N-(3-(3-azabicyclo[3.1.0]hexan-3-yl)-4-(4-(6-(4,4-difluoropiperidin-1-yl)pyridin-2-yl)-1H-1,2,3-triazol-1-yl)phenyl)methanesulfonamide]: 283 nM; `O=S(=O)(CCO)Nc1ccc(-n2cc(-c3ccn(C4CCC(F)(F)CC4)n3)nn2)c(N2CCCCC2)c1` [Compound 76, N-(4-(4-(1-(4,4-difluorocyclohexyl)-1H-pyrazol-3-yl)-1H-1,2,3-triazol-1-yl)-3-(piperidin-1-yl)phenyl)-2-hydroxyethane-1-sulfonamide]: 29 nM.
